# Assay results reported in patent publication US11197856B2, “Bicyclic compounds and methods for their use in treating autism” (priority 2013, dated 2021).
# How the values were obtained:
# MeCP2-/y mice = assay: Heart rate measurements (tail clip sensor); format: in vivo; details: 8 weeks old
# Procedure: Real time cardiac pulse rate is measured using a tail clip sensor (Mouse OX Oximeter-Oakmont, Pa.). Mice are not anesthetized but physically restrained in a fitted open plastic tube. Prior to the recording session the tube is placed overnight in the cages housing the experimental animals to allow habituation. Body temperature is maintained at ˜82-84° F. throughout the recording time. We record 3 trials of 15 minutes for each mouse, mice are 8 weeks old and treated with vehicle or cG-2-AllylP from PIS.
# To examine heart rate abnormalities in MeCP2−/y mice and the effect of cG-2-AllylP treatment, we monitor real time cardiac pulse rate in non-anesthetized wild type and MeCP2−/y animals treated with vehicle or cG-2-AllylP.
# adult MeCP2+/- mice = assay: Ocular dominance (OD) plasticity, optical imaging of intrinsic signals; format: in vivo; details: 4 days monocular deprivation
# Procedure: Adult (>P60) wild type (SVEV or BL6) and MeCP2 (+/−) mutant females (BL6) are used for this experiment. The wild type control group is composed of both wild type littermates of MeCP2+/− females or wild type age matched SVEV females. For monocular deprivation, animals are anesthetized with Avertin (0.016 ml/g) and the eyelids of one eye is sutured for 4 days. Prior to imaging, the suture is removed and the deprived eye re-opened. Only animals in which the deprivation sutures are intact and the condition of the deprived eye appears healthy are used for the imaging session. For cG-2-AllylP signaling activation, a solution containing cG-2-AllylP is injected intra-peritoneally (IP) daily for the entire period of deprivation. For the imaging sessions mice are anesthetized with urethane (1.3 g/kg; 20% of the full dosage is administered IP each 20-minutes up to the final dosage, 0.02 ml of cloroprothixene 1% is also injected together with the first administration). The skull is exposed and a custom-made plate is glued on the head to minimize movement. The skull is thinned over VI with a dremel drill and covered with an agarose solution in saline (1.3%) and a glass coverslip. During the imaging session, the animal is constantly oxygenated, its temperature maintained with a heating blanket and the eyes periodically treated with silicone oil; physiological conditions are constantly monitored. […]
# [1] = tested on: fmr1-knockout mice and wild-type littermates; assay: Successive Alleys Test; format: in vivo
# Procedure: The fmr1-knockout (KO2) mice (C57BL/6 background) were housed in groups of the same genotype in a temperature and humidity controlled room with a 12-h light-dark cycle (lights on 7 am to […]). Testing was conducted during the light phase. Food and water were available ad libitum. Testing was conducted on fmr1-knockout mice and their wild-type littermates. Experiments were conducted according to requirements of the UK Animals (Scientific Procedures) Act, 1986. The animals were divided into four groups:
# In one study, we used a “Successive Alleys Test” device. This device consists of four successive, linearly connected increasingly anxiogenic alleys. Each succeeding alley was painted a lighter color, had lower walls and/or was narrower than the previous alley. Animals were placed at the closed end of alley 1 (A1), facing the end wall. The latency to first enter each alley (A2, A3, and/or A4), the amount of time spent in each alley, and the number of entries into each alley were recorded during a total test time of 300 seconds.
# For a Successive Alleys Test, we measured the number of entries in Alley 1 (A1), Alley 2 (A2), Alley 3 (A3), and Alley 4 (A4) for each of the 4 groups of animals described above.
# synaptophysin (SYN) = assay: PBBI in rats: synaptophysin (SYN) immunohistochemistry in hippocampus; format: in vivo, Sprague-Dawley rats; details: 30 mg/kg oral once daily
# Procedure: The methods for producing PBBI in this Example is the same as described above for Example 26. Adult Sprague-Dawley rats were randomly assigned into three groups: sham (craniotomy only), PBBI+vehicle (i.e. H2O), and PBBI+cG-2-AllylP. cG-2-AllylP (or vehicle) was administered via oral gavage at 30 mg/kg at 30 min post-injury and continued once daily thereafter for 7, 14 or 28 days. At each treatment endpoint, rats were perfused and brains were processed for histological analysis (n=5-6/group/time-point). For detection of axonal sprouting, immunohistochemical detection of growth-associated protein-43 (GAP-43) was employed. Synaptogenesis was determined by immunohistochemistry for synaptophysin (SYN). For histological quantification, the integrated density in the hippocampal region was determined using NIH ImageJ software.
compound,measurement,setting,value
"C=CC[C@]12CCCN1C(=O)CNC2=O [cG-2-AllylP, (8aS)-Allyl-hexahydropyrrolo[1,2-a]pyrazine-1,4-dione]",occurrence of irregular heart rate with a lower average rate,MeCP2-/y mice,significantly reduced
same,OD plasticity,adult MeCP2+/- mice,reduces the OD plasticity
same,number of entries into arm A1,[1]; fmr1-knockout animals,about 4 times
same,number of entries into arm A2,[1]; fmr1-knockout animals,about 4 times
same,number of entries into arm A3,[1]; fmr1-knockout animals,about 4 times
same,number of entries into arm A4,[1]; fmr1-knockout animals,about 3 times
same,open arm entries,"[1]; fmr1-knockout animals vs vehicle, p<0.001",significant reduction in open arm entries
same,time spent in the center,"[1]; fmr1-knockout animals vs vehicle, p<0.005",significant reduction
same,number of entries into arm A1,[1]; wild-type animals,about 2 times
same,number of entries into arm A2,[1]; wild-type animals,about 4 times
same,injury-induced reduction in SYN expression,synaptophysin (SYN); 7d or 14d post-PBBI,no effect on injury-induced reductions
same,PBBI-induced reduction in SYN expression,synaptophysin (SYN); 28 days post-injury,attenuated PBBI-induced reductions
